From publication PMC9023544, “Ketone-selenoesters as potential anticancer and multidrug resistance modulation agents in 2D and 3D ovarian and breast cancer in vitro models” (Scientific Reports, 2022)

Experiments:
[1] = test system: HOC/ADR (sub-line resistant to Adriamycin, A2780/ADR); experiment: Cytotoxic activity, 2D, resazurin, 72 h; type: cell-based, human; details: for IC50 / IC10: Homo sapiens, A2780 ADR, 72 h; for IC50: read-out: HOC/ADR IC50; for IC10: read-out: IC10 of compounds; for SI HEK293/HOC/ADR: IC50 HEK293 / IC50 HOC/ADR; for CS (collateral sensitivity index): IC50 HOC / IC50 HOC/ADR
Method: (§1) The cytotoxic potential of selenoesters was tested on several cancer cell lines—HOC (human parental ovarian adenocarcinoma, HOC, A2780, Sigma-Aldrich), HOC/ADR (sub-line resistant to Adriamycin, A2780/ADR, Sigma-Aldrich), MCF-7 (human breast adenocarcinoma, ATCC®, HTB-22TM), MCF-7/PAX (resistant sub-line established by gradual adaptation of parental cells to increased concentration of paclitaxel; kindly provided by Division of Cell and Molecular Biology, Third Faculty of Medicine, Charles University, Czech Republic) and on one non-cancerous cell line—HEK293 (human embryonic kidney cell line, Leibniz Institute, DSMZ-German Collection of Microorganisms and Cell Cultures GmbH). All mentioned cell lines were authenticated using short tandem repeat (STR) profiling. Cell lines were cultivated in DMEM medium (10% FBS, 1× antibiotic antimycotic solution), except for HEK293 cell line which was cultivated without antibiotics. In case of the resistant cell lines, the medium was supplemented with a required concentration of cytostatics to maintain resistance (HOC/ADR—100 nM Adriamycin; MCF-7/PAX—300 nM paclitaxel). All cells were cultivated in a CO2 incubator (5% CO2, 37 °C, Thermo Fisher Scientific).
(§2) For the experiment, the cells at passage number 5–20 were seeded at a 1 × 10^5 cells/mL concentration into 96-well plates to 100 µL final volume. The final concentration range of the compounds was 0.63–20 µM. After an incubation of 72 h, the plates were washed 1× with PBS and resazurin solution (0.03 mg/mL in 1× PBS) was added. After 1 h of incubation, the fluorescence signal was recorded (ex./em. 560/590 nm).
(§3) The selectivity index (SI) was determined as the ratio of IC50 value for the non-cancerous cells to IC50 for the cancer cell line. For resistant cell lines, the collateral sensitivity (CS) was calculated as the ratio of IC50 value in sensitive tumour cells to IC50 in the resistant cancer cell line. In both cases, the selectivity is considered as: (1) strongly selective when SI or CS value is above 6, (2) moderately selective when SI or CS is between 3 and 6, (3) slightly selective when SI or CS is between 1 and 3 and (4) non-selective when SI or CS is less than 1[23].

[2] = test system: MCF-7/PAX (paclitaxel-resistant sub-line); experiment: Cytotoxic activity, 2D, resazurin, 72 h; type: cell-based, human; details: for IC50: Homo sapiens, MCF7, 72 h, read-out: MCF-7/PAX IC50; for SI HEK293/MC7-7/PAX: IC50 HEK293 / IC50 MCF-7/PAX; for CS (collateral sensitivity index): IC50 MCF-7 / IC50 MCF-7/PAX; for IC10 of compounds: MCF-7/PAX
Method: as §1, §2, §3

[3] = test system: HEK293 (human embryonic kidney cell line); experiment: Cytotoxic activity, non-cancerous cell line, resazurin, 72 h; type: cell-based; details: for IC50: Homo sapiens, HEK293, 72 h, mean ± SEM, n=3
Method: as §1, §2, §3

HOC/ADR = experiment: Sensitization of MDR cell line to Adriamycin; type: cell-based, human; details: IC50 of Adriamycin / IC50 of Adriamycin with IC10 dose of compound
Method: To determine the sensitization potential of compounds, HOC/ADR and MCF-7/PAX were used. Based on the cytotoxic potential of the compounds against several cancer and non-cancerous cell lines (Table 1), the concentrations of applied compounds were adjusted. IC10 values was considered as the concentrations, which should not decrease the cell viability under 90%. After the addition of compounds, Adriamycin (concentration range 0.1–20 µM) and paclitaxel (concentration range 0.1–10 µM) were added to HOC/ADR and MCF-7/PAX, respectively. The sensitization potential of the compounds was determined as the ratio of the IC50 of cytostatic agent (Adriamycin/paclitaxel) to the IC50 of cytostatic agent affected by the compound in concentration corresponding to the IC10 value. Fold change greater than 1 indicated synergic effect of cytostatic agent and the tested compound.
After that, the plates were washed 1× with PBS and fresh DMEM medium supplemented with tested compounds at final concentration corresponding their IC10 value was added, except for positive control wells. Subsequently, Adriamycin (concentration range 0.1–20 µM) or paclitaxel (concentration range 0.1–10 µM) was added to the appropriate cell line for 72 h. After incubation, the cells were washed 1× with PBS and the resazurin solution (0.03 mg/mL) was added to evaluate the cell viability as described above. IC50 values of cytostatics were calculated for both the control and compounds; a fold change was counted up. When this fold change is higher than 1 indicates a synergism between the tested cytostatic agent and the compound, while a fold change lower than 1 means an antagonism. Fold change=IC50value of cytostatic treated cells only/IC50value of cytostatic treated cells in addition of the compound

HOC/ADR spheroids = experiment: Sensitization of resistant 3D spheroids to Adriamycin; type: cell-based, human; details: Adriamycin IC50 / Adriamycin + selenoester IC50; K3 3 µM, K4 5 µM, K7 5 µM; 72 h
Method: In the previous section, the cytotoxic activity of selenoesters was determined against several 3D models of sensitive and resistant cell lines. Subsequently, the selenoesters were tested for their potential to sensitize the drug-resistant HOC/ADR and MCF-7/PAX spheroids. Mature 72 h old spheroids were incubated with the non-toxic concentration of selenoesters with Adriamycin or paclitaxel (concentration range 0.6–80 µM) for HOC/ADR or MCF-7/PAX, respectively (Table 8). After another 72 h incubation, the sensitization rate (fold change) was evaluated. […] The highest sensitization rate of ovarian spheroids (HOC/ADR) was induced by 5 µM K4, followed by 5 µM K7, and 3 µM K3.
To determine the sensitization potential of compounds, HOC/ADR and MCF-7/PAX were seeded into the ultra-low attachment 96-well plates (Sigma-Aldrich) at a cell density 0.5 × 10^5 cells/mL. After 3 days of spheroid formation, spheroids were carefully washed once with PBS and fresh DMEM medium (99 µL) containing the appropriate concentration of compounds K3, K4, K7 was added. Using a binary serial compound dilution, the concentration range of both cytostatics was prepared in the new 96-well plates (0.06–8 mM). After 1 µL transfer of cytostatics into the corresponding cell line, the final concentration range were 0.6–80 µM. The required volume of DMSO (1% V/V) was added to the positive control. After an incubation of 72 h, 100 µL of CellTiter-Glo 3D Reagent (Promega) was added to each well. Plates with spheroids were incubated for 25 min at room temperature. Afterwards, the luminescent signal was recorded.

| SMILES | IC50 [1] | IC10 [1] | SI HEK293/HOC/ADR [1] | CS (collateral sensitivity index) [1] | IC50 [2] | SI HEK293/MC7-7/PAX [2] | CS (collateral sensitivity index) [2] | IC10 of compounds [2] | IC50 [3] | Fold change (HOC/ADR) | HOC/ADR Fold change (3D) (HOC/ADR spheroids) | selectivity indexes between HEK293 and cancer cell lines ([3]; all cancer cell lines tested) |
| --- | --- | --- | --- | --- | --- | --- | --- | --- | --- | --- | --- | --- |
| CC(=O)C[Se]C(=O)c1ccc(Br)cc1 [K3] | 2600 ± 100 nM | 2000 nM | 0.9 ± 0.0 | 0.7 ± 0.1 | 2100 ± 100 nM | 1.1 ± 0.1 | 1.0 ± 0.3 | 1200 nM | 2400 nM | (1.4 ± 0.1)× | (1.2 ± 0.2)× |  |
| CC(=O)C[Se]C(=O)c1ccccc1C(F)(F)F [K4] | 3600 ± 100 nM | 2900 nM | 1.5 ± 0.2 | 0.6 ± 0.0 | 3300 ± 300 nM | 1.6 ± 0.2 | 0.6 ± 0.0 | 1800 nM | 5400 ± 400 nM | (1.4 ± 0.1)× | (2.3 ± 0.1)× | highest selectivity |
| CC(=O)C[Se]C(=O)c1ccc(C(C)(C)C)cc1 [K7] | 3100 ± 300 nM | 1800 nM | 0.5 ± 0.1 | 0.4 ± 0.1 | 2400 ± 100 nM | 0.6 ± 0.1 | 0.8 ± 0.1 | 1300 nM | 1500 ± 100 nM |  | (1.6 ± 0.1)× |  |
